Data taken from patent US20100068208A1, “Degranulation inhibitor” (priority 2005, published 2010).

Tests used:
[1] = molecular target: T1, human TGR12 (Homo sapiens, UniProt Q96LB1); test: Intracellular calcium increasing activity in RBL2H3-TGR12 (FLIPR); type: cell-based; conditions: RBL2H3-TGR12, 1 μM
T1 construct: expressed in transfected cells
T1 sequence (Q96LB1 1-330): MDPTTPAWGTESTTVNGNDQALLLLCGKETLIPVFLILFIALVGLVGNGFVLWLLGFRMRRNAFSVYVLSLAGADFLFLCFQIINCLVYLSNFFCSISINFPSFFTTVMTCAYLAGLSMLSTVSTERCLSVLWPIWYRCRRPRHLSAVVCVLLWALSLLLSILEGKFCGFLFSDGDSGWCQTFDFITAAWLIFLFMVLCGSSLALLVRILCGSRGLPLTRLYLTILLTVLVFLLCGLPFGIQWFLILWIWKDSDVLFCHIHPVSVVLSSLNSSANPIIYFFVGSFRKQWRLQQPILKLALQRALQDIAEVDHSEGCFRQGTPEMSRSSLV
Description: (§1) RBL-2H3 (hereinafter RBL2H3) was incubated in α-MEM (Invitrogen) supplemented with 10% fetal calf serum. Vector plasmid pcDNA3.1 for animal cell expression, in which the nucleotide sequence containing the initiation codon to the termination codon of human TGR12 (DNA having the nucleotide sequence represented by SEQ ID NO: 32) was incorporated, was stably expressed in RBL-2H3 to establish human TGR12-expressed RBL-2H3 cell line (hereinafter RBL2H3-TGR12). RBL2H3-TGR12 was incubated in α-MEM (Invitrogen) supplemented with 10% fetal calf serum and 200 μg/mL of Geneticin.
(§2) The intracellular calcium increasing activity was assayed as follows. RBL2H3 and RBL2H3-TGR12 were plated in a 96-well plate at a density of 40,000 cells/well and incubated overnight. The medium was then discarded and 100 μL/well of 4 μM Fluo3-AM (Dojin Kagaku)-containing assay buffer [Hank's Balanced Salt Solution (Invitrogen), 20 mM HEPES (Dojin Kagaku) and 2.5 mM Probenecid (Sigma)] was added. The mixture was allowed to stand for an hour at 37° C. Various TGR12 (Peptide Institute, Inc.) or calcium ionophore A23187 (Wako Pure Chemical) was diluted in 0.05% CHAPS-containing assay buffer. After the cells were washed with the assay buffer, fluorescence emitted with changes in intracellular calcium was measured using FLIPR (Molecular Device). A sample, 50 μL, was added at a rate of 50 μL/sec. 10 seconds after initiation of the assay. Fluorescence was measured every 1 second during the first 60 seconds and every 6 seconds during the next 120 seconds. The highest fluorescence intensity during 3 minutes was made the maximum activity under the stimulation conditions, which was taken as an average of 3 wells. The EC50 values were calculated using Graphpad PRISM 4 (Graphpad Software).

[2] = test system: RBL-2H3; test: Intracellular calcium increasing activity in RBL2H3 (FLIPR); type: cell-based; conditions: RBL2H3, 1 μM
Description: as §1, §2

[3] = test system: TGR12; type: cell-based, human; conditions: CHO-TGR12, 1 μM
Description: CHO/dhfr^− cells (hereinafter CHO) were incubated in α-MEM (Invitrogen) supplemented with 10% fetal calf serum. After a termination codon in the TGR12-encoding nucleotide sequence was removed, a nucleotide sequence ligated with the nucleotide sequence encoding GFP (Wako Pure Chemical) [hereinafter briefly referred to as TGR12-GFP (DNA having the nucleotide sequence represented by SEQ ID NO: 31)] was incorporated into vector plasmid pAKKO-111H (the same vector plasmid as pAKKO1.11H described in Biochim. Biophys. Acta, 1219, 251-259 (1994)) for animal cell expression, and the vector plasmid was stably expressed to establish TGR12-GFP-expressed CHO cell line (hereinafter CHO-TGR12). CHO-TGR12 was incubated in nucleic acid-free α-MEM medium (Invitrogen) containing 10% dialyzed fetal calf serum.
CHO-TGR12 was plated in a 96-well plate at a density of 30,000 cells/well. After incubation overnight, the medium was discarded and 100 μL/well of assay buffer [Hank's Balanced Salt Solution (Invitrogen), 20 mM HEPES (Dojin Chemical Laboratory) and 2.5 mM Probenecid (Sigma)] containing 4 μM Fluo3-AM (Dojin Chemical Laboratory) was added, which was then allowed to stand for an hour at 37° C. […] After the cells were washed with assay buffer, fluorescence reflecting changes in intracellular calcium levels was assayed on FLIPR (Molecular Device). Ten seconds after initiation of the assay, 50 μL of a sample was added at a rate of 50 μL/second. Fluorescence measurement was taken every 1 second during the first 60 seconds and then every 6 seconds during the next 120 seconds; the highest fluorescence intensity over a 3 minute period was taken as the maximum activity under the stimulation condition, representing the mean value of 3 wells. The EC50 values were determined using Graphpad PRISM 4 (Graphpad Software).

[4] = test system: human mast cell line LAD 2; test: Effect of NK1 receptor antagonists on substance P- or A23187-induced degranulation of LAD 2; type: cell-based
Description: Subsequently, Tyrode's buffer containing 50 μL of NK1 antagonist GR-82334 (Sigma, Inc.) in various concentrations or L-703606 (Sigma, Inc.) was added and incubation was continued at 37° C. for 5 minutes. […] Next, 0.2 M glycine/NaCO3 (pH 10.7) was added in a volume of 0.1-fold of the reaction solution to stop the reaction. The activity was then assayed using Fusion-α (Perkin-Elmer). […] The inhibition activity by the NK1 receptor antagonist was expressed as the percentage of the β-hexosaminidase activity when the NK1 antagonist was added in various concentrations, based on the β-hexosaminidase activity when no NK1 antagonist was added.

SMILES	maximum activity in the calcium increasing effect [1]	maximum activity in the calcium increasing effect [2]	maximum activity in the calcium increasing effect [3]	degranulation, % of β-hexosaminidase activity without NK1 antagonist ([4]; A23187 stimulation 0.3 μM, antagonist 100 nM)	degranulation, % of β-hexosaminidase activity without NK1 antagonist ([4]; A23187 stimulation 0.3 μM, antagonist 300 nM)	degranulation, % of β-hexosaminidase activity without NK1 antagonist ([4]; A23187 stimulation 0.3 μM, antagonist 1 μM)	degranulation, % of β-hexosaminidase activity without NK1 antagonist ([4]; A23187 stimulation 0.3 μM, antagonist 3 μM)	degranulation, % of β-hexosaminidase activity without NK1 antagonist ([4]; A23187 stimulation 0.3 μM, antagonist 10 μM)	degranulation, % of β-hexosaminidase activity without NK1 antagonist ([4]; A23187 stimulation 0.3 μM, antagonist 30 μM)	inhibition of the degranulation by the substance P and A23187 stimulation ([4]; concentration range of 3 μM)	inhibition of the degranulation by the substance P and A23187 stimulation ([4]; concentration range of 10 μM to 30 μM, non-specifically to TGR12 and NK1 receptor)	degranulation, % of β-hexosaminidase activity without NK1 antagonist ([4]; substance P stimulation 0.3 μM, antagonist 100 nM)	degranulation, % of β-hexosaminidase activity without NK1 antagonist ([4]; substance P stimulation 0.3 μM, antagonist 300 nM)	degranulation, % of β-hexosaminidase activity without NK1 antagonist ([4]; substance P stimulation 0.3 μM, antagonist 1 μM)	degranulation, % of β-hexosaminidase activity without NK1 antagonist ([4]; substance P stimulation 0.3 μM, antagonist 3 μM)	degranulation, % of β-hexosaminidase activity without NK1 antagonist ([4]; substance P stimulation 0.3 μM, antagonist 10 μM)	degranulation, % of β-hexosaminidase activity without NK1 antagonist ([4]; substance P stimulation 0.3 μM, antagonist 30 μM)
CNc1ccc2oc(C[C@H]3O[C@@]4(CC[C@H]3C)O[C@H]([C@H](C)C(=O)c3ccc[nH]3)[C@H](C)C[C@H]4C)nc2c1C(=O)O [A23187]	25624	25338	27379	–	–	–	–	–	–	–	–	–	–	–	–	–	–
Ic1ccccc1CN[C@@H]1C2CCN(CC2)[C@@H]1C(c1ccccc1)c1ccccc1 [L-703606]	–	–	–	98.4%	97.2%	97.4%	91.5%	37.1%	2.4%	did not inhibit	inhibited	101.1%	97.9%	98.8%	100.0%	39.4%	3.2%
